# Where two headings read alike, the source gives them in different places.
# Target: Human complement C1s enzyme (Homo sapiens (Human), UniProt P09871)
# Experiment: Human C1s enzyme assay
# Format: biochemical
# Conditions: Human complement C1s enzyme 1.16 nM, assay of Example 3, read-out: IC50 (Stars)
# Procedure, shortened: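 Purified serum-derived human C1s (1.16 nM final) preincubated 5 min at room temperature with compound in 50 mM Tris, 1 M NaCl, pH 7.5. Z-L-Lys-SBzl thioester substrate and DTNB added (100 μM each, final); A405 read every 30 s for 30 min. IC50 from nonlinear regression of reaction rates against compound concentration.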
# Chain of Human complement C1s enzyme (P09871 438-688 limits assumed): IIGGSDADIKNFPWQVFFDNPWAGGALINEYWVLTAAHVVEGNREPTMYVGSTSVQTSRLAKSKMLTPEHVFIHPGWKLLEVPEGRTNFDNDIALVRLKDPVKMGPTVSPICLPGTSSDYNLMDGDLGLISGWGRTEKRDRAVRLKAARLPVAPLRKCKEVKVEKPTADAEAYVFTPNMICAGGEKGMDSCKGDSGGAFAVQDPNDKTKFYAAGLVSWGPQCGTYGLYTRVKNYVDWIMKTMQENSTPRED
# Chain of Human complement C1s enzyme (P09871 16-437 partner limits assumed): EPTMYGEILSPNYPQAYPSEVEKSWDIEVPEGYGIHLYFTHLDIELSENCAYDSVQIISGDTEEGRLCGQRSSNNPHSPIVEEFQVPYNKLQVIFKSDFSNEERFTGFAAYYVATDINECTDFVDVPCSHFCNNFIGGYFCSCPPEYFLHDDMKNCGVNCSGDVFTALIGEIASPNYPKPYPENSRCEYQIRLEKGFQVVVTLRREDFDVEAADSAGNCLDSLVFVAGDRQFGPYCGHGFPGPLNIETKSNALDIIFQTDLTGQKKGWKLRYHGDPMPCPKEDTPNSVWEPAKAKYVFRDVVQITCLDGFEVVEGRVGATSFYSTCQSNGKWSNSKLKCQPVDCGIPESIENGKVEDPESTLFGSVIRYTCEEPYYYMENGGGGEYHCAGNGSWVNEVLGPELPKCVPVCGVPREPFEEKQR
IC50 (substrate Z-L-Lys-SBzl 100 μM) [nM],IC50 (substrate Z-L-Lys-SBzl) [nM],SMILES
< 100,,"C[C@@H](NC(=O)[C@@H]1C[C@@H](S(C)(=O)=O)CN1C(=O)CNC(=O)c1ccc2c(c1)oc1ccccc12)c1cc(C(=N)N)cs1 [Compound 379, (2S,4R)—N—((R)-1-(4-carbamimidoylthiophen-2-yl)ethyl)-1-((dibenzo[b,d]furan-3-carbonyl)glycyl)-4-(methylsulfonyl)pyrrolidine-2-carboxamide]"
> 1000,,"O=C(NCC(=O)N1CC2(C[C@H]1C(=O)NCc1ccn[nH]1)OCCO2)c1ccc(Oc2ccccc2)cc1 [Compound 384, (S)-N-((1H-pyrazol-5-yl)methyl)-7-((4-phenoxybenzoyl)glycyl)-1,4-dioxa-7-azaspiro[4.4]nonane-8-carboxamide]"
< 100,,"C[C@@H](NC(=O)[C@@H]1C[C@@H](OC(F)F)CN1C(=O)CN1Cc2cc(-c3ccccc3)ccc2C1=O)c1cc(C(=N)N)cs1 [Compound 385, (2S,4R)—N—((R)-1-(4-carbamimidoylthiophen-2-yl)ethyl)-4-(difluoromethoxy)-1-(2-(1-oxo-5-phenylisoindolin-2-yl)acetyl)pyrrolidine-2-carboxamide]"
< 100,,"COC[C@@]1(F)C[C@@H](C(=O)N[C@H](C)c2cc(C(=N)N)cs2)N(C(=O)CNC(=O)c2ccc3[nH]c4ccccc4c3c2)C1 [Compound 389, N-(2-((2S,4R)-2-(((R)-1-(4-carbamimidoylthiophen-2-yl)ethyl)carbamoyl)-4-fluoro-4-(methoxymethyl)pyrrolidin-1-yl)-2-oxoethyl)-9H-carbazole-3-carboxamide]"
< 100,,"COC[C@@]1(F)C[C@@H](C(=O)N[C@H](CO)c2cc(C(=N)N)cs2)N(C(=O)CNC(=O)c2ccc3c(c2)C(F)(F)c2ccccc2-3)C1 [Compound 397, (2S,4R)—N—((R)-1-(4-carbamimidoylthiophen-2-yl)-2-hydroxyethyl)-1-((9,9-difluoro-9H-fluorene-2-carbonyl)glycyl)-4-fluoro-4-(methoxymethyl)pyrrolidine-2-carboxamide]"
,< 100,"CS(=O)(=O)[C@@H]1C[C@@H](C(=O)N[C@H](CO)c2cc(C(=N)N)cs2)N(C(=O)CNC(=O)c2ccc3c(c2)-c2ccccc2C3(F)F)C1 [Compound 400, (2S,4R)—N—((R)-1-(4-carbamimidoylthiophen-2-yl)-2-hydroxyethyl)-1-((9,9-difluoro-9H-fluorene-3-carbonyl)glycyl)-4-(methylsulfonyl)pyrrolidine-2-carboxamide]"
,< 100,"CC1(C)c2ccccc2-c2cc(C(=O)NCC(=O)N3C[C@@](F)(CF)C[C@H]3C(=O)N[C@H](CO)c3cc(C(=N)N)cs3)ccc21 [Compound 401, (2S,4R)—N—((R)-1-(4-carbamimidoylthiophen-2-yl)-2-hydroxyethyl)-1-((9,9-dimethyl-9H-fluorene-3-carbonyl)glycyl)-4-fluoro-4-(fluoromethyl)pyrrolidine-2-carboxamide]"

# The remaining lines, values behind:
SMILES,IC50 (substrate Z-L-Lys-SBzl 100 μM) [nM],IC50 (substrate Z-L-Lys-SBzl) [nM]
"C[C@@H](NC(=O)[C@@H]1C[C@@H](S(C)(=O)=O)CN1C(=O)CNC(=O)c1ccc2c(c1)sc1ccccc12)c1cc(C(=N)N)cs1 [Compound 378, (2S,4R)—N—((R)-1-(4-carbamimidoylthiophen-2-yl)ethyl)-1-((dibenzo[b,d]thiophene-3-carbonyl)glycyl)-4-(methylsulfonyl)pyrrolidine-2-carboxamide]",< 100,
"CC1(C)c2ccccc2-c2cc(C(=O)NCC(=O)N3C[C@H](S(C)(=O)=O)C[C@H]3C(=O)N[C@H](CO)c3cc(C(=N)N)cs3)ccc21 [Compound 380, (2S,4R)—N—((R)-1-(4-carbamimidoylthiophen-2-yl)-2-hydroxyethyl)-1-((9,9-dimethyl-9H-fluorene-3-carbonyl)glycyl)-4-(methylsulfonyl) pyrrolidine-2-carboxamide]",< 100,
"C[C@@H](NC(=O)[C@@H]1C[C@@H](S(C)(=O)=O)CN1C(=O)CNC(=O)c1ccc2c(c1)S(=O)(=O)c1ccccc1-2)c1cc(C(=N)N)cs1 [Compound 381, (2S,4R)—N—((R)-1-(4-carbamimidoylthiophen-2-yl)ethyl)-1-((5,5-dioxidodibenzo[b,d]thiophene-3-carbonyl)glycyl)-4-(methylsulfonyl) pyrrolidine-2-carboxamide]",< 100,
"C[C@@H](NC(=O)[C@@H]1C[C@]2(COCCCN)C[C@@H]2N1C(=O)CNC(=O)c1ccc2c(c1)-c1ccccc1C2(F)F)c1cc(C(=N)N)cs1 [Compound 382, (1S,3S,5R)-5-((3-aminopropoxy)methyl)-N—((R)-1-(4-carbamimidoylthiophen-2-yl)ethyl)-2-((9,9-difluoro-9H-fluorene-3-carbonyl)glycyl)-2-azabicyclo[3.1.0]hexane-3-carboxamide]",< 100,
"CS(=O)(=O)[C@@H]1C[C@@H](C(=O)N[C@H](CO)c2cc(C(=N)N)cs2)N(C(=O)CNC(=O)c2ncc(-c3ccccc3)cc2F)C1 [Compound 383, N-(2-((2S,4R)-2-(((R)-1-(4-carbamimidoylthiophen-2-yl)-2-hydroxyethyl)carbamoyl)-4-(methylsulfonyl)pyrrolidin-1-yl)-2-oxoethyl)-3-fluoro-5-phenylpicolinamide]",< 100,
"C[C@@H](NC(=O)[C@@H]1CC2(CN1C(=O)CN1Cc3ccc(-c4ccccc4)cc3C1=O)OCCO2)c1cc(C(=N)N)cs1 [Compound 386, (S)—N—((R)-1-(4-carbamimidoylthiophen-2-yl)ethyl)-7-(2-(1-oxo-6-phenylisoindolin-2-yl)acetyl)-1,4-dioxa-7-azaspiro[4.4]nonane-8-carboxamide]",< 100,
"C[C@@]12C[C@@H]1N(C(=O)CNC(=O)c1ccc(Oc3ccccc3)cc1)[C@H](C(=O)NCc1cccc(Cl)c1Cl)C2 [Compound 387, (1S,3S,5S)—N-(2,3-dichlorobenzyl)-5-methyl-2-((4-phenoxybenzoyl)glycyl)-2-azabicyclo[3.1.0]hexane-3-carboxamide]",> 1000,
"Cc1ccc(-c2cnc(C(=O)NCC(=O)N3CC4(C[C@H]3C(=O)N[C@H](C)c3cc(C(=N)N)cs3)OCCO4)c(F)c2)cc1 [Compound 388, (S)—N—((R)-1-(4-carbamimidoylthiophen-2-yl)ethyl)-7-((3-fluoro-5-(p-tolyl)picolinoyl)glycyl)-1,4-dioxa-7-azaspiro[4.4]nonane-8-carboxamide]",< 100,
"CC1c2ccccc2-c2ccc(C(=O)NCC(=O)N3C[C@H](S(C)(=O)=O)C[C@H]3C(=O)N[C@H](C)c3cc(C(=N)N)cs3)cc21 (stereo partly drawn) [Compound 390, (2S,4R)—N—((R)-1-(4-carbamimidoylthiophen-2-yl)ethyl)-1-((9-methyl-9H-fluorene-2-carbonyl)glycyl)-4-(methylsulfonyl)pyrrolidine-2-carboxamide]",< 100,
"C[C@@H](NC(=O)[C@@H]1CC2(CN1C(=O)CNC(=O)c1ccc3nc4ccccc4cc3c1)OCCO2)c1cc(C(=N)N)cs1 [Compound 391, (S)-7-((acridine-2-carbonyl)glycyl)-N—((R)-1-(4-carbamimidoylthiophen-2-yl)ethyl)-1,4-dioxa-7-azaspiro[4.4]nonane-8-carboxamide]",< 100,
"C[C@@H](NC(=O)[C@@H]1C[C@@H](S(C)(=O)=O)CN1C(=O)CNC(=O)c1ccc2c(c1)-c1ccccc1C2OC(F)F)c1cc(C(=N)N)cs1 (stereo partly drawn) [Compound 392, (2S,4R)—N—((R)-1-(4-carbamimidoylthiophen-2-yl)ethyl)-1-((9-(difluoromethoxy)-9H-fluorene-3-carbonyl)glycyl)-4-(methylsulfonyl)pyrrolidine-2-carboxamide]",< 100,
"COC[C@@]1(F)C[C@@H](C(=O)N[C@H](C)c2cc(C(=N)N)cs2)N(C(=O)CNC(=O)c2ccc3c(c2)-c2ccccc2S3(=O)=O)C1 [Compound 393, (2S,4R)—N—((R)-1-(4-carbamimidoylthiophen-2-yl)ethyl)-1-((5,5-dioxidodibenzo[b,d]thiophene-2-carbonyl)glycyl)-4-fluoro-4-(methoxymethyl) pyrrolidine-2-carboxamide]",< 100,
"COC[C@@]1(F)C[C@@H](C(=O)N[C@H](C)c2cc(C(=N)N)cs2)N(C(=O)CNC(=O)c2ccc3sc4ccccc4c3c2)C1 [Compound 394, (2S,4R)—N—((R)-1-(4-carbamimidoylthiophen-2-yl)ethyl)-1-((dibenzo[b,d]thiophene-2-carbonyl)glycyl)-4-fluoro-4-(methoxymethyl)pyrrolidine-2-carboxamide]",< 100,
"CO[C@@H]1C[C@@H](C(=O)N[C@H](CO)c2cc(C(=N)N)cs2)N(C(=O)CNC(=O)c2ccc3c(c2)-c2ccccc2C3(C)C)C1 [Compound 395, (2S,4R)—N—((R)-1-(4-carbamimidoylthiophen-2-yl)-2-hydroxyethyl)-1-((9,9-dimethyl-9H-fluorene-3-carbonyl)glycyl)-4-methoxypyrrolidine-2-carboxamide]",< 100,
"N=C(N)c1csc([C@@H](CO)NC(=O)[C@@H]2C[C@@H](OC(F)F)CN2C(=O)CNC(=O)c2ccc3c(c2)C(F)(F)c2ccccc2-3)c1 [Compound 396, (2S,4R)—N—((R)-1-(4-carbamimidoylthiophen-2-yl)-2-hydroxyethyl)-1-((9,9-difluoro-9H-fluorene-2-carbonyl)glycyl)-4-(difluoromethoxy) pyrrolidine-2-carboxamide]",< 100,
"N=C(N)c1csc([C@@H](CO)NC(=O)[C@@H]2C[C@](F)(CF)CN2C(=O)CNC(=O)c2ccc3c(c2)-c2ccccc2C3(F)F)c1 [Compound 398, (2S,4R)—N—((R)-1-(4-carbamimidoylthiophen-2-yl)-2-hydroxyethyl)-1-((9,9-difluoro-9H-fluorene-3-carbonyl)glycyl)-4-fluoro-4-(fluoromethyl)pyrrolidine-2-carboxamide]",,< 100
"CC1(C)c2ccccc2-c2cc(C(=O)NCC(=O)N3CC4(C[C@H]3C(=O)N[C@H](CO)c3cc(C(=N)N)cs3)OCCO4)ccc21 [Compound 399, (S)—N—((R)-1-(4-carbamimidoylthiophen-2-yl)-2-hydroxyethyl)-7-((9,9-dimethyl-9H-fluorene-3-carbonyl)glycyl)-1,4-dioxa-7-azaspiro[4.4]nonane-8-carboxamide]",,< 100

# Source: patent US20250346585A1 (Alexion Pharmaceuticals, Inc., priority 2022, published 2025)
